# Test results as given in ChEMBL document CHEMBL5055656, “Synthesis of novel indole-thiazolidinone hybrid structures as promising scaffold with anticancer potential” (Bioorg Med Chem, 2021).
# The source made the active and inactive calls. The calls are words filed in the database; no cut-off is given here.
# How the values were obtained:
# HCT-116 [1] = experiment: Induction of DNA damage in human HCT-116 cells assessed as increase in tail length incubated at 0.7 uM measured after 24 hrs by alkaline Comet assay relative to control; format: functional
# [2] = Selectivity index, ratio of GI50 for human HaCaT mouse BALA/3T3 cells to GI50 for human A549 cells; format: toxicity; details: read-out: RatioGI50
# HCT-116 [3] = experiment: Induction of apoptosis in human HCT-116 cells assessed as activation of cleaved PARP1 expression at 0.7 uM incubated for 24 hrs by Western blot analysis; format: functional, cell-based
# MCF7 [4] = experiment: Induction of apoptosis in human MCF7 cells assessed as activation of cleaved PARP1 expression at 0.7 uM incubated for 24 hrs by Western blot analysis; format: functional, cell-based
# MCF7 [5] = experiment: Induction of cell cycle arrest in human MCF7 cells assessed as decrease in phospho-Rb expression at 45 uM measured after 24 hrs by Western blot analysis; format: functional, cell-based
# BALB/3T3 [6] = experiment: Induction of DNA damage in mouse BALB/3T3 cells assessed as increase in tail length incubated at 55 uM measured after 24 hrs by alkaline Comet assay; format: cell-based; details: balb/3t3, 24 h
# HepG2 [7] = experiment: Cytotoxicity against human HepG2 cells assessed as cell growth inhibition measured after 24 hrs by MTT assay; format: functional
# HepG2 [8] = experiment: Induction of apoptosis in human HepG2 cells assessed as activation of cleaved caspase 3 expression at 0.7 uM incubated for 24 hrs by Western blot analysis; format: functional, cell-based
# MCF7 [9] = experiment: Induction of apoptosis in human MCF7 cells assessed as decrease in Cdk2 expression at 45 uM after 24 hrs by Western blot analysis; format: functional, cell-based
# [10] = Selectivity index, ratio of GI50 for mouse BALA/3T3 cells to GI50 for human HepG2 cells measured after 24 hrs by coomassie brilliant blue staining based total cellular protein assay; format: toxicity; details: BALA/3T3 cells versus HepG2 cells, read-out: Selectivity Index
# HepG2 [11] = experiment: Cytotoxicity against human HepG2 cells assessed as cell growth inhibition measured after 48 hrs by MTT assay; format: functional
# [12] = Selectivity index, ratio of GI50 for human HaCaT cells to GI50 for human HepG2 cells; format: toxicity; details: HaCaT cells versus HepG2 cells, read-out: RatioGI50
# BALB/3T3 [13] = experiment: (§1) Cytotoxicity against mouse BALB/3T3 cells assessed as cell growth inhibition measured after 24 hrs by LDH assay; format: cell-based; details: balb/3t3, 24 h
# [14] = as §1; format: cell-based; details: BALB/3T3 cells
# Salmon testes DNA = experiment: Displacement of methyl green from salmon sperm DNA at 1 uM measured after 2 hrs by fluorescence plate reader method relative to control; format: cell-based; details: Salmo salar, Spermatozoa
# HCT-116 [15] = experiment: Induction of DNA damage in human HCT-116 cells assessed as increase in olive tail moment incubated at 0.7 uM measured after 24 hrs by alkaline Comet assay; format: functional
# HepG2 [16] = experiment: Cytotoxicity against human HepG2 cells assessed as cell growth inhibition measured after 72 hrs by MTT assay; format: functional
# WM793 = experiment: Cytotoxicity against human WM793 cells assessed as cell growth inhibition measured after 72 hrs by MTT assay; format: functional
# [17] = Selectivity index, ratio of GI50 for mouse BALA/3T3 cells to GI50 for human HCT-116 cells; format: toxicity; details: BALA/3T3 cells versus HCT-116 cells, read-out: RatioGI50
# HepG2 [18] = experiment: Induction of apoptosis in human HepG2 cells assessed as increase in Cdk2 expression at 45 uM after 24 hrs by Western blot analysis; format: functional, cell-based
# MCF7 [19] = experiment: Induction of DNA damage in human MCF7 cells assessed as increase in tail length incubated at 0.7 uM measured after 24 hrs by alkaline Comet assay; format: functional, cell-based
# BALB/3T3 [20] = experiment: (§2) Cytotoxicity against mouse BALB/3T3 cells assessed as cell growth inhibition measured after 48 hrs by MTT assay; format: cell-based; details: balb/3t3, 48 h
# [21] = as §2; format: cell-based; details: BALB/3T3 cells
# HepG2 [22] = experiment: Cytotoxicity against human HepG2 cells assessed as cell growth inhibition measured after 48 hrs by LDH assay; format: functional
# [23] = Selectivity index, ratio of GI50 for mouse BALA/3T3 cells to GI50 for human HepG2 cells measured after 72 hrs by coomassie brilliant blue staining based total cellular protein assay; format: toxicity; details: BALA/3T3 cells versus HepG2 cells, read-out: Selectivity Index
# [24] = Selectivity index, ratio of GI50 for mouse BALA/3T3 cells to GI50 for human HepG2 cells measured after 48 hrs by coomassie brilliant blue staining based total cellular protein assay; format: toxicity; details: BALA/3T3 cells versus HepG2 cells, read-out: Selectivity Index
# BALB/3T3 [25] = experiment: (§3) Cytotoxicity against mouse BALB/3T3 cells assessed as cell growth inhibition measured after 24 hrs by coomassie brilliant blue staining based total cellular protein assay; details: balb/3t3, 24 h
# [26] = as §3; details: BALB/3T3 cells
# HepG2 [27] = experiment: Induction of DNA damage in human HepG2 cells assessed as increase in tail length incubated at 0.7 uM measured after 24 hrs by alkaline Comet assay; format: functional
# BALB/3T3 [28] = experiment: Induction of DNA damage in mouse BALB/3T3 cells assessed as increase in olive tail moment incubated at 55 uM measured after 24 hrs by alkaline Comet assay; format: cell-based; details: balb/3t3, 24 h
# BALB/3T3 [29] = experiment: (§4) Cytotoxicity against mouse BALB/3T3 cells assessed as cell growth inhibition measured after 24 hrs by MTT assay; format: cell-based; details: balb/3t3, 24 h
# [30] = as §4; format: cell-based; details: BALB/3T3 cells
# HepG2 [31] = experiment: Cytotoxicity against human HepG2 cells assessed as cell growth inhibition measured after 72 hrs by coomassie brilliant blue staining based total cellular protein assay; format: functional
# [32] = Selectivity index, ratio of GI50 for mouse BALA/3T3 cells to GI50 for human THP-1 cells
# [33] = biological target: Mitogen-activated protein kinase; ERK1/ERK2 (Homo sapiens) (UniProt P27361+P28482); experiment: Inhibition of ERK1/2 phosphorylation in human HepG2 cells at 45 uM after 24 hrs by Western blotting analysis; format: cell-based
# Mitogen-activated protein kinase; ERK1/ERK2 (Homo sapiens), sequence (P27361 whole entry, looked up): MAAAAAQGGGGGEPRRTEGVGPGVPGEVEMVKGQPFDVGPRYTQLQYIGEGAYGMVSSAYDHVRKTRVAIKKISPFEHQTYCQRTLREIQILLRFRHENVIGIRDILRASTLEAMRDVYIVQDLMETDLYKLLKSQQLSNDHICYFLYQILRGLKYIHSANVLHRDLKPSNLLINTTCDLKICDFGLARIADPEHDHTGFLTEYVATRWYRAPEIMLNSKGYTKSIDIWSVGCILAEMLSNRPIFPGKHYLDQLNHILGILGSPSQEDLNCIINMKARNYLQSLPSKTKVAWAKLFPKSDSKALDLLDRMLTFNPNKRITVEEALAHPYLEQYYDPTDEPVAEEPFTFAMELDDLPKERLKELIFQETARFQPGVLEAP
# Mitogen-activated protein kinase; ERK1/ERK2 (Homo sapiens), sequence (P28482 whole entry, looked up): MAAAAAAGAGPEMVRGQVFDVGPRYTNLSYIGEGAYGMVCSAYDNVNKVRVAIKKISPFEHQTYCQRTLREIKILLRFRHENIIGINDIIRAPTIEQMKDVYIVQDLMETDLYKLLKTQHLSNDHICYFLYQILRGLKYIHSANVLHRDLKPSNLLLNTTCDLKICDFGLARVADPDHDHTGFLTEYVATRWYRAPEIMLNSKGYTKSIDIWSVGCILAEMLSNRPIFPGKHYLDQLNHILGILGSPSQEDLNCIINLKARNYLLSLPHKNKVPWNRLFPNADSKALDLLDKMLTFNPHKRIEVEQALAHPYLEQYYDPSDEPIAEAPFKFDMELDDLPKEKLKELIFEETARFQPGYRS
# HepG2 [34] = experiment: Cytotoxicity against human HepG2 cells assessed as cell growth inhibition measured after 24 hrs by LDH assay; format: functional
# BALB/3T3 [35] = experiment: (§5) Cytotoxicity against mouse BALB/3T3 cells assessed as cell growth inhibition measured after 72 hrs by coomassie brilliant blue staining based total cellular protein assay; details: balb/3t3, 72 h
# [36] = as §5; details: BALB/3T3 cells
# HCT-116 [37] = experiment: Induction of cell cycle arrest in human HCT-116 cells assessed as decrease in phospho-Rb expression at 45 uM measured after 24 hrs by Western blot analysis; format: functional, cell-based
# [38] = Cytotoxicity against mouse BALB/3T3 cells assessed as cell growth inhibition measured after 72 hrs by MTT assay; format: cell-based
# HepG2 [39] = experiment: Cytotoxicity against human HepG2 cells assessed as cell growth inhibition measured after 48 hrs by neutral red uptake assay; format: functional
# HepG2 [40] = experiment: Cytotoxicity against human HepG2 cells assessed as cell growth inhibition measured after 72 hrs by LDH assay; format: functional
smiles,measurement,setting,value
COC(=O)c1[nH]c2ccc(F)cc2c1/C=C1\SC(=S)NC1=O,Activity,HCT-116 [1],16.1%
same,selectivity ratio,[2],7.17
same,Activity,HCT-116 [3],Active
same,Activity,MCF7 [4],Active
same,Activity,MCF7 [5],Active
same,Activity,BALB/3T3 [6],8.4%
same,GI20,HepG2 [7],3 µM
same,GI80,HepG2 [7],95.6 µM
same,GI50,"HepG2 [7]; Homo sapiens, HepG2",44.7 µM
same,Activity,HepG2 [8],Active
same,Activity,MCF7 [9],Active
same,selectivity ratio at 24 h,[10],1
same,GI20,HepG2 [11],0.3 µM
same,GI80,HepG2 [11],79.4 µM
same,GI50,"HepG2 [11]; Homo sapiens, HepG2",16.3 µM
same,selectivity ratio,[12],5.75
same,GI20,BALB/3T3 [13],> 100 µM
same,GI80,BALB/3T3 [13],> 100 µM
same,GI50 at 24 h,[14],> 100 µM
same,Activity,Salmon testes DNA,1.7%
same,Activity,HCT-116 [15],3.1
same,GI50,HepG2 [16],12.1 µM
same,GI50,WM793,80.4 µM
same,selectivity ratio,[17],86.9
same,Activity,HepG2 [18],Active
same,Activity,MCF7 [19],Active
same,GI20,BALB/3T3 [20],0.8 µM
same,GI80,BALB/3T3 [20],84.8 µM
same,GI50 at 48 h,[21],25 µM
same,GI20,HepG2 [22],<0.01 µM
same,GI80,HepG2 [22],16.2 µM
same,GI50,"HepG2 [22]; Homo sapiens, HepG2",0.06 µM
same,selectivity ratio at 72 h,[23],3
same,selectivity ratio at 48 h,[24],2
same,GI20,BALB/3T3 [25],6.1 µM
same,GI80,BALB/3T3 [25],> 100 µM
same,GI50 at 24 h,[26],> 100 µM
same,Activity,HepG2 [27],26.2%
same,Activity,BALB/3T3 [28],3.5
same,GI20,BALB/3T3 [29],7.9 µM
same,GI80,BALB/3T3 [29],> 100 µM
same,GI50 at 24 h,[30],54.3 µM
same,GI20,HepG2 [31],0.08 µM
same,GI80,HepG2 [31],>100 µM
same,GI50,"HepG2 [31]; Homo sapiens, HepG2",35.6 µM
same,RatioGI50,[32],1.11
same,inhibition,[33],inactive
same,GI20,HepG2 [34],<0.01 µM
same,GI80,HepG2 [34],20.3 µM
same,GI50,"HepG2 [34]; Homo sapiens, HepG2",0.31 µM
same,GI20,BALB/3T3 [35],1.6 µM
same,GI80,BALB/3T3 [35],> 100 µM
same,GI50 at 72 h,[36],48.3 µM
same,Activity,HCT-116 [37],Active
same,GI50 at 72 h,[38],40.8 µM
same,GI20,HepG2 [39],0.06 µM
same,GI80,HepG2 [39],73.5 µM
same,GI50,"HepG2 [39]; Homo sapiens, HepG2",24.5 µM
same,GI20,HepG2 [40],<0.01 µM
same,GI80,HepG2 [40],3.6 µM
same,GI50,"HepG2 [40]; Homo sapiens, HepG2",0.04 µM
